{"source": "patent US20070213403A1", "about": "“TAMOXIFEN RESPONSE IN PRE-AND POST[…] CANCER PATIENTS” (priority 2004, published 2007)", "key": {"[1]": {"tested_on": "premenopausal patients with stage II invasive breast cancer", "assay": "Randomised trial of two years of adjuvant tamoxifen vs control in premenopausal patients", "assay_type": "in vivo, human", "description": "Premenopausal patients or patients under 50 years with stage II (pT2 N0 M0, pT1 N1 M0 and pT2, N1 M0) invasive breast cancer were enrolled in a clinical trial between 1986 -1991 and randomized to control (n=288) or two years of tamoxifen (n=276). All patients were radically operated by modified radical mastectomy or breast conserving surgery with axillary lymph node dissection (level one and two). After breast conserving surgery, radiotherapy (50 Gy) was given to the breast and in patients with axillary lymph node metastases locoregional radiotherapy was delivered. Patients were included irrespective of hormone receptor status. Randomization was performed by the Regional Oncologic Centre and oral informed consent registered for all patients. The study was approved by the ethical committee at Lund and Linkoping Universities.\nThe patients were followed until 5 years with annual mammogram and physical examination and then within the national program by screening mammogram every 18th month.The median duration of follow-up for patients without breast cancer event was 13.9 years (95% Cl: 13.6-14.3). The median follow-up time was the same in the two treatment arms. • 2. Postmenopausal Patients\n(§1) 3-4 um sections of the paraffin embedded tissue arrays were dried, deparaffinized, rehydrated and microwave treated for 5+5 min in a citrate buffer (pH 6.0) before being processed in an automatic immunohistochemistry staining machine according to standard procedures (TechMate500, Dako, Denmark) using a polyclonal VEGF (A-20) antibody diluted 1:400 recognizing VEGF 165, 189 and 121 (Santa Cruz, Calif., USA) and a monoclonal VEGFR2 antibody recognizing VEGFR2/KDR diluted 1:1000 (Santa Cruz, Calif., USA). Normal human kidneys were used as positive controls for VEGF-A and for VEGFR2, human aortic endothelium served as positive controls. VEGF-A was previously validated using an ELISA-based method (LR). The cytoplasmatic staining intensity was evaluated semi-quantitatively using a classification from 0-3, representing lack of staining (0), low staining intensity (1), intermediate staining intensity (2) and high staining intensity (3). Only invasive tumor cells were evaluated. In survival analyses, high staining intensity (grade 3) was compared with the other grades (0, 1, 2) for both VEGF-A and VEGFR2 in premenopausal patients. In postmenopausal patients lack of staining was compared with staining of any intensity.\nER and PR were determined by immunohistochemistry in a tissue microarray. For this purpose, the Ventana Benchmark system (Ventana Medical Systems Inc., AZ, USA) with prediluted antibodies (Anti-ER Clone 6F11 and Anti-PgR Clone 16) was used. In line with the clinically established cut-off used for hormone receptor assessment, tumors with more than 10% positively staining nuclei were considered positive. In addition, the fractions of positive nuclei were quantified. […]\n(§2) For survival analyses all calculations were done according to the intention to treat rule. Recurrence-free survival (RFS) considered distant, local and regional metastasis as primary event as well as breast cancer death, whereas contralateral breast cancer was not included. The Kaplan-Meier method was used to estimate recurrence-free and breast cancer survival and the log-rank test to compare survival in different strata. Cox proportional hazards model was used for estimation of univariate hazard ratios (HRs) and multivariate analysis."}, "[2]": {"tested_on": "postmenopausal patients with stage II invasive breast cancer", "assay": "Randomised trial of two years of tamoxifen (40 mg/day) vs control in postmenopausal patients", "assay_type": "in vivo, human", "description": "The patients included were enrolled in a multi-center clinical trial at Umea University Hospital, Sweden, during 1980-1987 (Trial II) included in the Oxford meta-analysis. The inclusion criteria were postmenopausal patients (>55 years) with stage II (pT1, pN1, pM0, pT2, pN0, pM0, pT2, […], pM0) invasive breast cancer. For patients older than 70 years, stage II and stage III breast cancer patients were included. Patients were operated with modified radical mastecomy. The hormone receptor level was not determined at time of randomization. Patients were randomized to control or tamoxifen treatment (40 mg/day) for two years by the Regional Oncologic Center and oral informed consent was registered on admission to the Oncological Clinic. The study was approved by the Ethical Committee at the Umea university 1980 as well as 2002 (modification regarding molecular markers used in tissue micro array). The median age was 66.5 years (55-75 years) at inclusion. The median follow-up time was 18 years (range 15-22 years) for surviving patients.\nas §1\nER and PR were determined by immunohistochemistry in a tissue microarray. For this purpose, the Ventana Benchmark system (Ventana Medical Systems Inc., AZ, USA) with prediluted antibodies (Anti-ER Clone 6F11 and Anti-PgR Clone 16) was used. In line with the clinically established cut-off used for hormone receptor assessment, tumors with more than 10% positively staining nuclei were considered positive. In addition, the fractions of positive nuclei were quantified.\nas §2"}, "[3]": {"tested_on": "hormone receptor positive breast cancer", "details": "adjuvant tamoxifen for five years; cited from earlier work"}, "[4]": {"details": "Cox model with VEGFR2 status and interaction-variable, ER positive patients"}, "[5]": {"details": "Cox model, ER positive patients"}, "[6]": {"details": "Cox multivariate model with VEGF-A status and interaction-variable, ER positive patients"}, "[7]": {"details": "Cox multivariate model, ER positive patients"}, "[8]": {"details": "ER positive patients, univariate"}, "[9]": {"details": "ER positive, HER2 low tumors, univariate"}}, "data": [{"molecule": "CC/C(=C(\\c1ccccc1)c1ccc(OCCN(C)C)cc1)c1ccccc1", "note": "[tamoxifen]", "values": [{"measurement": "absolute risk reduction (recurrence)", "setting": "[1]; 324 ER positive patients, two years of tamoxifen vs control", "value": 15, "unit": "%"}, {"measurement": "HR, OS, Randomization Tam v control", "setting": "[1]; [4]", "value": 0.6}, {"measurement": "HR, RFS, Randomization Tam v control", "setting": "[1]; [4]", "value": 0.6}, {"measurement": "HR, OS, interaction-variable tamoxifen treatment x VEGFR2 status", "setting": "[1]; [5]", "value": 5.2}, {"measurement": "HR, RFS, interaction-variable tamoxifen treatment x VEGFR2 status", "setting": "[1]; [5]", "value": 2.2}, {"measurement": "HR, OS, Randomization Tam v control", "setting": "[1]; [6]", "value": 1.1}, {"measurement": "HR, RFS, Randomization Tam v control", "setting": "[1]; [6]", "value": 0.5}, {"measurement": "HR, OS, interaction-variable tamoxifen treatment x VEGF-A status", "setting": "[1]; [7]", "value": 0.5}, {"measurement": "HR, RFS, interaction-variable tamoxifen treatment x VEGF-A status", "setting": "[1]; [7]", "value": 1.5}, {"measurement": "HR, OS (tamoxifen vs control)", "setting": "[1]; ER negative disease", "value": 0.9}, {"measurement": "HR, RFS (tamoxifen vs control)", "setting": "[1]; ER negative disease", "value": 0.9}, {"measurement": "recurrence rate", "setting": "[1]; ER positive patients, tamoxifen treated group", "value": 36, "unit": "%"}, {"measurement": "HR, OS (tamoxifen vs control)", "setting": "[1]; [8]", "value": 0.8}, {"measurement": "HR, RFS (tamoxifen vs control)", "setting": "[1]; [8]", "value": 0.6}, {"measurement": "HR, OS (tamoxifen vs control)", "setting": "[1]; [9]", "value": 0.8}, {"measurement": "HR, RFS (tamoxifen vs control)", "setting": "[1]; [9]", "value": 0.6}, {"measurement": "HR, OS (tamoxifen vs control)", "setting": "[1]; ER positive, HER 2 overexpressing tumor, univariate", "value": 0.9}, {"measurement": "HR, RFS (tamoxifen vs control)", "setting": "[1]; ER positive, HER2 overexpression, univariate", "value": 0.7}, {"measurement": "HR, RFS (tamoxifen vs control)", "setting": "[1]; ER positive, VEGF grade 3 tumors, univariate", "value": 0.8}, {"measurement": "HR, RFS (tamoxifen vs control)", "setting": "[1]; ER positive, VEGF-A grade 0-2 tumors, univariate", "value": 0.6}, {"measurement": "HR, OS (tamoxifen vs control)", "setting": "[1]; ER positive, VEGFA grade 0-2 tumors, univariate", "value": 0.8}, {"measurement": "HR, OS (tamoxifen vs control)", "setting": "[1]; ER positive, VEGFA grade 3 tumors, univariate", "value": 0.8}, {"measurement": "HR, OS (tamoxifen vs control)", "setting": "[1]; ER positive, VEGFR2 3", "value": 3.4}, {"measurement": "HR, RFS (tamoxifen vs control)", "setting": "[1]; ER positive, VEGFR2 grade 0, 1 or 2 staining intensity", "value": 0.6}, {"measurement": "HR, OS (tamoxifen vs control)", "setting": "[1]; ER positive, VEGFR2 grade 0-2", "value": 0.7}, {"measurement": "HR, RFS (tamoxifen vs control)", "setting": "[1]; ER positive, intense expression of VEGFR2 (grade 3)", "value": 1.4}, {"measurement": "HR of interaction-variable VEGFR2 status x tamoxifen treatment, OS", "setting": "[2]; Cox model, 10 years, ER positive >90% stained nuclei", "value": 0.2}, {"measurement": "HR, OS at 10 years (tamoxifen vs control)", "setting": "[2]; ER positive >90% stained nuclei, VEGF-A negative tumors", "value": 0.3}, {"measurement": "HR, OS at 10 years (tamoxifen vs control)", "setting": "[2]; ER positive >90% stained nuclei, VEGF-A positive tumors", "value": 0.8}, {"measurement": "HR, OS at 10 years (tamoxifen vs control)", "setting": "[2]; ER positive >90% stained nuclei, VEGFR2 negative tumors", "value": 0.2}, {"measurement": "HR, OS at 10 years (tamoxifen vs control)", "setting": "[2]; ER positive >90% stained nuclei, VEGFR2 positive tumors", "value": 0.9}, {"measurement": "effect on overall survival of tamoxifen treatment", "setting": "[2]; all patients irrespective of hormone receptor content", "value": "non-significant"}, {"measurement": "tamoxifen response (overall survival)", "setting": "[2]; patients with >90% ER positive cells, 10 years", "value": "notable at 10-years, however not strictly significant"}, {"measurement": "reduction of death", "setting": "[3]", "value": 28, "unit": "%"}, {"measurement": "reduction of recurrence", "setting": "[3]", "value": 50, "unit": "%"}]}]}
